Test results reported in patent US7585839B2, “Medical uses of intercellular communication facilitating compounds” (Zealand Pharma A/S, priority 2001, dated 2009).
[ ]: non-standard residue; d: D form. Hyp = O=C(O)[C@@H]1C[C@@H](O)CN1

Tests used:
[1] = system: calcium-induced arrythmias; assay: Calcium-induced arrhythmia model in mice (CaCl2-induced 2nd degree AV-block); assay type: in vivo; conditions: for CaCl2 mice In vivo, % / CaCl2 mice Score: calcium chloride induced arrythmia model; for In vivo activity: maximal effect, increase in time until 2nd degree AV-block relative to vehicle treated mice, i.v.
Method: The antiarrhythmic effects of compounds of this invention were tested in an in vivo model of calcium-induced arrythmias according to the model of Lynch et al.^[37]. […]. Commercial solutions of hypnorm and midazolam were diluted 1:1 in distilled water and one part diluted Hypnorm® is mixed with one part diluted midazolam.
The anaesthesia was induced by s.c. administration in a dose of 0.05-0.075 μl/10 gram mouse. An i.v. cannula was inserted into the tail vein. The lead II ECG signal was recorded continuously by positioning of a stainless steel ECG electrodes on the right forelimb and on the left hind limb. The ground electrode was placed on the right hind limb. The signal was amplified (×5.000-10.000) and filtered (0.1-150 Hz) via a Hugo Sachs Electronic model 689 ECG module. The analogue signal was digitised via a 12 bit data acquisition board (Data Translation model DT321) and sampled at 1000 Hz using the Notocord HEM 3.1 software for Windows NT. After a 10-min equilibration period, the test sample of drug was injected into the tail vein. Mice pre-treated with vehicle were tested as a measure of the control level in untreated animals. The injection volume was 100 μl in all experiments. Infusion of CaCl2 (30 mg/ml, 0.1 ml/min≈100 mg/kg/min (calciumchlorid-2-hydrat, Riedel-de Haën, Germany)) was started 3 min after i.v. administration of drug or vehicle.
The time lag to onset of 2nd degree AV-block was determined as the time from the start of CaCl2 infusion until the first arrhythmic event occured. An event of 2nd degree AV-block was defined as intermittent failure of the AV conduction characterised by a P-wave without the concomitant QRS complex.
Responses were expressed relative to the time until 2nd degree AV-block occurred in vehicle treated mice.

[2] = system: WB-F344 rat liver epithelial cells; conditions: cited from earlier work
[3] = system: phosphoinositol turnover in neonatal rat cardiomyocytes; assay: Phosphoinositol turnover in primary cardiomyocyte cultures; assay type: cell-based
Method: Neonatal Wistar rats (1-2 days old) are used. Hank's calcium- and magnesium-free balanced salt solution, buffered with 10 mM HEPES is used for washing during cell separation procedures. The hearts are excised, the ventricles isolated and the tissue cut into small pieces. The myocardial cells are isolated by stepwise enzymatic degradation with collagenase 0.05%, as described by ^[35]. After repeated rounds of centrifugation and washing, the precipitated cells are resuspended in culture medium M199 with Earle's salt, 10% NCS, penicillin (75 U/mL), and streptomycin (75 U/mL) and pre-plated in a Petri dish for 90 minutes. The non-adherent cells are collected in the culture medium and plated in multidishes at 2.5*10^5 cells/well. The cultures are kept in a water-saturated CO2-incubator at 37° C. The cardiomyocyte cultures are used for analyses after 6-7 days.
Cardiomyocyte cultures are incubated for 48 hours in culture medium containing 4 μCi/mL myo-[2-^3H]inositol to label the inositol phospholipids. On the day of analysis the medium is replaced by a buffer solution containing lithium and incubated at 37° C., as described by Meier et al.^[36]. After at least five minutes this buffer is replaced by the same volume of buffer containing test compound and incubated for exactly 20 minutes. The reaction is stopped by rapid replacement of the buffer by ice cold 4% v/v perchloric acid (PCA) and incubation for at least 20 minutes at 0° C. The PCA-extract is neutralised and the [^3H]inositol phosphates are separated by anion-exchange chromatography using Amprep™ columns containing 100 mg SAX Quaternary amine. The [^3H]inositol mono-phosphates are eluted and radioactivity in the fraction measured by liquid scintillation counting.
Before adding test substances to the cultures, the cells are depleted of glucose and oxygen by incubating them in a N2-atmosphere in glucose-free lithium-buffer for 10 minutes at 37° C. Control cells are incubated likewise only at normal atmospheric conditions and in a buffer containing glucose.

[4] = system: membranes from rabbit heart; conditions: cited from earlier work
[5] = system: regional ischemia in the rabbit; conditions: cited from earlier work
[6] = system: connexin 43 in keratinocytes; conditions: keratinocytes of middel aged and elderly people; cited from earlier work
[7] = In vitro plasma and serum stability, rabbit; assay type: in vitro ADME; conditions: 37° C., 0.1 mg/ml
Method: (§1) The stability of peptides is analysed in serum and plasma. The peptides are incubated at 37° C. in plasma or serum and samples taken at approx. 9 regular intervals between t=0 and t=156 min are analysed by HPLC.
This is done by subsequent injections of the drug, plasma, and a co-injection with the drug and the plasma, followed by optimisation of the LC method parameters until a satisfactory separation is obtained. Three parallel experiments are performed for each plasma type. 100 ml of peptide is mixed with 900 ml plasma at t=0 and incubated at 37° C. (drug-plasma mixture conc. 0.1 mg/ml). Samples of 100 ml of the drug-plasma mixture are removed at appropriate intervals and the degradation stopped by precipitation of the sample with 10 ml MeCN:TFA 50:50 v/v. A control plasma sample without the drug treated in the same manner is also taken. The plasma samples are centrifuged for 15 min. at 12,000 rpm (Eppendorf centrifuge) at ambient temperature. The resulting supernatant solution is transferred to 300 ml HP autosamler vials and analyzed by HPLC. The samples are analyzed in the following order: blank, the peptide at 0.1 mg/mL, the plasma without the peptide, the three parallel samples for t=0, the three parallel samples for t=5 min. the three parallel samples for t=10 min. etc. […]

[8] = In vitro plasma and serum stability, human; assay type: in vitro ADME; conditions: for T½, PLASMA, HEPARIN HUMAN: 37° C., 0.1 mg/ml
Method: as §1
This is done by subsequent injections of the drug, plasma, and a co-injection with the drug and the plasma, followed by optimisation of the LC method parameters until a satisfactory separation is obtained. Three parallel experiments are performed for each plasma type. 100 ml of peptide is mixed with 900 ml plasma at t=0 and incubated at 37° C. (drug-plasma mixture conc. 0.1 mg/ml). Samples of 100 ml of the drug-plasma mixture are removed at appropriate intervals and the degradation stopped by precipitation of the sample with 10 ml MeCN:TFA 50:50 v/v. A control plasma sample without the drug treated in the same manner is also taken. The plasma samples are centrifuged for 15 min. at 12,000 rpm (Eppendorf centrifuge) at ambient temperature. The resulting supernatant solution is transferred to 300 ml HP autosamler vials and analyzed by HPLC. The samples are analyzed in the following order: blank, the peptide at 0.1 mg/mL, the plasma without the peptide, the three parallel samples for t=0, the three parallel samples for t=5 min. the three parallel samples for t=10 min. etc. And finally the three parallel samples for t=0 are repeated to make sure that there have been no degradation or other failure during the analyses. The sample concentrations (peak height in mAU) are plotted vs. time and fitted to a function describing a mono exponential decay (Excel).

human osteoblastic cells = assay: DDT-induced uncoupling in human osteoblast cells, Lucifer Yellow microinjection; assay type: cell-based; conditions: 13 μM, 60 minutes; control 14.5 cells
Method: Human osteoblast cells: Cells were isolated from human bone marrow obtained by puncture of the posterior iliac spine of healthy volunteers (aged 20-36): 10-15 ml marrow material was collected in 15 ml PBS+Ca, Mg (Life Technologies, Cat.No. 14040) with 100 U/ml Heparin (Sigma, Cat.No. H-3149). The mononuclear fraction of the marrow was isolated on a Lymphoprep gradient (Nycomed Pharma, Cat.No. 1001967), by centrifugation at 2200 rpm for 30 min. After harvesting, the mononuclear fraction was washed once with culture medium and centrifuged at 1800 rpm for 10 min. Subsequently cells were counted and plated in culture medium at 8×10^6 cells/100 mm dish. hOB medium (all reagents obtained from Life Technologies): MEM w/o Phenol Red w/Glutamax (Cat.No. 041-93013) supplemented with 10% heat inactivated fetal calf serum (Cat.No. 10106) and 0.1% Penicillin/Streptomycin (Cat.No. 15140). Medium was changed the following day and the cells were cultured at 37° C. in 5%CO2 with medium change every 7 days. After 3-4 weeks of culture the cells had reached 70% confluence. The medium was then supplemented with 100 nM Dexamethasone (Sigma, Cat.No. D-4902) for 7 days. Cells were then plated for video imaging experiments: a 25 mm #1 glass coverslip was placed in a 35 mm dish (or each well of a 6-well multidish), cells were plated at 2.5×10^5 cells/coverslip and cultured for 2-3 days before use. […]

[9] = system: cerulein-induced acute pancreatitis; conditions: 100 mg/kg orally; pancreatitis group 19%; cited from earlier work
GJIC = conditions: 10(−10) to 10(−6) M; cited from earlier work

## Oc1ccc(C=Cc2cc(O)cc(O)c2)cc1 [Resveratrol, resveratrol]
[1]; iv, 0.1 umol/kg
  time until calcium-induced block relative to animals treated with vehicle: 136±9%
[2]; 17-50 microM
  prevention of down-regulation of GJIC by DDT, factor: 1.8
  prevention of down-regulation of GJIC by TPA, factor: 2.7
[2]; 17 to 50 microM, 6 h
  increase of GJIC, factor compared with solvent vehicle controls: 1.3

## H-GAG[Hyp]PY-NH2 [AAP10]
[3]; metabolic stress induced by anoxia and glucose deprivation
  EC50 relative to the EC50 value for Compound 2: 10 fold
[3]; normoxia
  EC50 relative to the EC50 value for Compound 2: 200 fold
[1]
  CaCl2 mice In vivo, %: 76 +/− 21%
  CaCl2 mice Score: 3
  In vivo activity: +++ (+++ refers to >60% increase in time until arrhythmia)
[4]
  value given for AAP10 by Dhein et al.: 0.2 nM
[5]
  concentration of maximal effect on dispersion of the epicardial activation-recovery interval: 10^−8 mol/l

## COc1cc2c(cc1O)C[C@H]1c3c(cc(O)c(OC)c3-2)CCN1C [boldine]
[6]
  optimal concentration for increase of the content of connexin 43: 50 nM

## cyclo(GAG[Hyp]PYQ) [Compound 35]
[1]
  CaCl2 mice In vivo, %: 48 +/− 14%
  CaCl2 mice Score: 2
  In vivo activity: ++ (++ refers to 30-50% increase in time until arrhythmia)
[7]
  T½, PLASMA, HEPARIN RABBIT: 14 hrs ± 2%
[8]
  Human plasma half life: 900 min
  T½, PLASMA, HEPARIN HUMAN: 15 hrs ± 1%

## Clc1ccc(C(c2ccc(Cl)cc2)C(Cl)(Cl)Cl)cc1 [DDT, 1,1-bis(p-chlorophenyl)-2,2,2-trichlorethane, reference compound]
Human osteoblastic cells
  cellular coupling, median number of cells with dye: 7 cells

## cyclo(GAG[Hyp]PYN) [Compound 36]
[1]
  CaCl2 mice In vivo, %: 57 +/− 8%
  CaCl2 mice Score: 2
  In vivo activity: +++ (+++ refers to >60% increase in time until arrhythmia)
[7]
  T½, PLASMA, HEPARIN RABBIT: 30 hrs ± 8%
[8]
  Human plasma half life: 780 min
  T½, PLASMA, HEPARIN HUMAN: 9 hrs ± 1%

## Nc1nc(N)nc(-c2cc(Cl)ccc2Cl)n1 [irsogladine, 6-(2,5-dichlorophenyl)-2,4-diamino-1,3,5-triazine]
[9]
  number of Cx32 grains, % of the normal control value: 70%
GJIC
  effect on GJIC, compound alone: did not affect GJIC

## NC[C@H](O)c1ccc(O)c(O)c1 [Noradrenaline]
[3]; atmosphere of N2 and depleted of glucose
  Emax of phosphoinositol turnover: 2248±702 cpm
[3]; normal atmospheric and nutritional conditions
  Emax of phosphoinositol turnover: 3852±266 cpm

## H-PYNGAG[Hyp]-NH2 [Compound 27]
[8]
  stability in plasma and serum compared with AAP10: considerably more stable
